Laboratory results from patent publication US6011000A, “Compositions for the treatment of blood disorders” (priority 1995, dated 2000).

What was measured:
[1] = system: Friend leukemia cells; conditions: cited from earlier work
[2] = system: human fetal (γ) globin gene; conditions: cited from earlier work
[3] = system: fetal globin; conditions: pharmacological doses, phenylhydrazine-anemic chickens; cited from earlier work
[4] = system: fetal globin expression in K562 human erythroleukemia cells; conditions: cited from earlier work
[5] = system: histone acetylation; conditions: cited from earlier work
[6] = system: gamma globin (erythroblasts of sickle cell anemia patients); experiment: Induction of fetal globin in erythroblasts by steel factor; format: cell-based, human; conditions: 100 ng/ml
Description: Peripheral blood was obtained from patients with sickle cell anemia. Mononuclear cells were isolated on Ficoll-Hypaque gradients. One culture was treated with 100 ng/ml steel factor for 13 days and compared with an untreated control. […] A second culture was incubated overnight with an identical dose of steel factor plus ^3 H-leucine. Amounts of labeled globin proteins synthesized in untreated (FIG. 5A) and steel factor treated (FIG. 5B) cells were determined by autoradiography and quantitated (scanned) by laser densitometry.

[7] = system: anemic baboon; experiment: In vivo reticulocyte proliferation, globin expression and blood counts in anemic (phlebotomized) baboons; conditions: for Fetal reticulocytes: baseline 4%
Description: Experiments were performed to determine if administration of the chemical compositions could induce fetal globin gene expression in an in vivo model similar to humans (S. P. Perrine et al., Brit. J. Haematol. 88:555-61, 1994). Briefly, chemicals were prepared as sterile pharmaceutical solutions in pH adjusted sterile water. A variety of chemical compositions were administered sequentially to some baboons. After administration of one compound, a wash-out period with no compound administration was maintained until reticulocytes returned to base line prior to administration of the next compound. This was done, at least partly, to compare the magnitude of response which occurred within the same individual animal to different compounds.
Briefly, juvenile female baboons (2 years old) were catheterized with arterial and venous catheters and phlebotomized gradually every day to maintain a moderate anemia of 7.0 to 7.5 grams hemoglobin/dl. Fetal reticulocytes, the newly produced red blood cells containing fetal globin, were assayed using a monoclonal antibody against fetal globin (HbF) as described by G. Dover et al. (Blood 67:735-38, 1986). Briefly, blood was stained with two antibodies, one specific for reticulocytes and another against fetal globin protein. The amount of antibody bound cells was determined by FACS analysis. Globin chain synthesis was assayed as described by J. B. Clegg et al. (J. Mol. Biol. 19:91-108, 1966). Briefly, reticulocytes were radio-labeled with ^3 H-leucine which was incorporated in equal proportions into actively synthesized globin chains. After incubation in leucine-free media, cells were washed, and globin proteins were separated and purified by column chromatography. Radioactivity incorporated into each peak is compared and the ratios of gamma to gamma plus beta globin calculated. Each animal served as its own control with baseline monitoring assays performed for 4-6 weeks before any drug was administered. Phlebotomy was continued daily, so that peripheral HbF levels in the animals were not considered to be accurate over the short treatment time-frames and were not monitored. Safety monitoring was performed by frequent physical examinations, quantitation of food eaten, activity and frequent chemistry and hematology monitoring. Complete blood counts were assayed before, during and after treatment. Results presented were not adjusted to account for the daily phlebotomy.

[8] = system: fetal globin synthesis in erythroid progenitors; conditions: cited from earlier work
[9] = 25 and 100 μg/kg s.c., undetectable before treatment

Molecule | hemoglobin synthesis [1] | transcription of the human fetal (γ) globin gene [2] | expression of fetal globin [3] | increase of fetal globin expression [4] | level of histone acetylation [5] | mean increase in gamma globin expression ([6]; 13 days, vs untreated control) | gamma globin expression in BFU-e cells ([6]; 13 days, from 14%) | globin proteins included in the increase ([6]; overnight) | Gamma globin expression ([6]; overnight + 3H-leucine, untreated 17.6%) | Fetal reticulocytes ([7]; 25 μg/kg s.c. daily, 4 days (FIG. 10)) | Fetal reticulocytes ([7]; 100 μg/kg s.c., four days, after wash-out) | rise in numbers of newly-formed blood cells producing fetal globin ([7]; 25 and 100 μg/kg s.c.) | total increase of gamma globin expression in the bone marrow ([7]; 25 and 100 μg/kg s.c.) | fetal globin chain protein [7, 9] | rise in fetal globin chain protein [7, 9] | fetal globin synthesis [8]
CCCC(=O)O [butyric acid] | induced hemoglobin synthesis | accurately and specifically stimulated transcription of the human fetal (γ) globin gene | greatly increased expression of fetal globin | much less of an effect | may act by increasing the level of histone acetylation | – | – | – | – | – | – | – | – | – | – | –
steel factor: hematopoietic factor, steel factor, also referred to as kit ligand, mast cell growth factor and stem cell factor | – | – | – | – | – | 16.1% | 23.3% | included both G-γ and A-γ globin proteins | 43.3% | 15% | 12% | 300-500% | 9 fold | about 3 % of total non-alpha globin | 3 fold | capable of influencing fetal globin synthesis in erythroid progenitors
